From PubChem BioAssay AID1963432 (Molecular Pharmacology Branch, DTP, NCI, 2024)

System: SYO-1 complex spheroid growth, percent test/control
Experiment: Anticancer human tumor SYO-1 cell line growth inhibition [Asc];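 further: compound exposure lasted 7 days after spheroids grew 3 days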;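 on viability, T/C: 100% = DMSO vehicle control viability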
Conditions: for IC50: curve of first compound; for viability, T/C: stronger effect = lower value
Method in brief: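 Tumor cells were grown as multicellular spheroids with stromal HUVEC and mesenchymal stem cells and treated singly or in combination. Concentrations fell in half-log steps from the clinical Cmax, or from 10 microM where none was known.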

`CCN1CCN(Cc2ccc(Nc3ncc(F)c(-c4cc(F)c5nc(C)n(C(C)C)c5c4)n3)nc2)CC1` + Cc1c(S(C)(=O)=O)c(-c2cc(F)cc(N3CCN(c4ccc(NS(=O)(=O)c5ccc(NC(CCN6CCC(C(=O)OCCCP(=O)(O)O)CC6)CSc6ccccc6)c(S(=O)(=O)C(F)(F)F)c5)cc4)CC3)c2)c(-c2ccc(Cl)cc2)n1C(C)C gave an IC50 (second compound 0.0316 µM) of over 1 µM, an IC50 (second compound 0.1 µM) of over 1 µM and an IC50 (second compound 0.316 µM) of over 1 µM. For the same molecule, the IC50 (second compound 1 µM) was over 1 µM, the IC50 (second compound 3.16 µM) was over 1 µM and the IC50 (second compound 10 µM) was over 1 µM. For the same molecule, the viability, T/C (second compound 0.0316 µM, first compound 0.00316 µM) was 102%, the viability, T/C (second compound 0.0316 µM, first compound 0.01 µM) was 99.2% and the viability, T/C (second compound 0.0316 µM, first compound 0.0316 µM) was 109%. It also gave a viability, T/C (second compound 0.0316 µM, first compound 0.1 µM) of 111%, a viability, T/C (second compound 0.0316 µM, first compound 0.316 µM) of 121% and a viability, T/C (second compound 0.0316 µM, first compound 1 µM) of 106%. The viability, T/C (second compound 0.1 µM, first compound 0.00316 µM) was 99.8%, the viability, T/C (second compound 0.1 µM, first compound 0.01 µM) was 101% and the viability, T/C (second compound 0.1 µM, first compound 0.0316 µM) was 97.8%. For the same molecule, the viability, T/C (second compound 0.1 µM, first compound 0.1 µM) was 113%, the viability, T/C (second compound 0.1 µM, first compound 0.316 µM) was 116% and the viability, T/C (second compound 0.1 µM, first compound 1 µM) was 109%. It also gave a viability, T/C (second compound 0.316 µM, first compound 0.00316 µM) of 103%, a viability, T/C (second compound 0.316 µM, first compound 0.01 µM) of 99.1% and a viability, T/C (second compound 0.316 µM, first compound 0.0316 µM) of 108%. For the same molecule, the viability, T/C (second compound 0.316 µM, first compound 0.1 µM) was 108%, the viability, T/C (second compound 0.316 µM, first compound 0.316 µM) was 114% and the viability, T/C (second compound 0.316 µM, first compound 1 µM) was 99.4%. For the same molecule, the viability, T/C (second compound 1 µM, first compound 0.00316 µM) was 99.7%, the viability, T/C (second compound 1 µM, first compound 0.01 µM) was 105% and the viability, T/C (second compound 1 µM, first compound 0.0316 µM) was 103%. The viability, T/C (second compound 1 µM, first compound 0.1 µM) was 106%, the viability, T/C (second compound 1 µM, first compound 0.316 µM) was 115% and the viability, T/C (second compound 1 µM, first compound 1 µM) was 95.1%. The viability, T/C (second compound 3.16 µM, first compound 0.00316 µM) was 92.7%, the viability, T/C (second compound 3.16 µM, first compound 0.01 µM) was 93.7% and the viability, T/C (second compound 3.16 µM, first compound 0.0316 µM) was 110%. The viability, T/C (second compound 3.16 µM, first compound 0.1 µM) was 107%, the viability, T/C (second compound 3.16 µM, first compound 0.316 µM) was 110% and the viability, T/C (second compound 3.16 µM, first compound 1 µM) was 92.2%. For the same molecule, the viability, T/C (second compound 10 µM, first compound 0.00316 µM) was 87.5%, the viability, T/C (second compound 10 µM, first compound 0.01 µM) was 82.5% and the viability, T/C (second compound 10 µM, first compound 0.0316 µM) was 80%. The viability, T/C (second compound 10 µM, first compound 0.1 µM) was 94.2%, the viability, T/C (second compound 10 µM, first compound 0.316 µM) was 101% and the viability, T/C (second compound 10 µM, first compound 1 µM) was 86.6%.

In the case of `NC(=O)C(=Cn1cnc(-c2cc(C(F)(F)F)cc(C(F)(F)F)c2)n1)c1cncnc1` + Cc1c(S(C)(=O)=O)c(-c2cc(F)cc(N3CCN(c4ccc(NS(=O)(=O)c5ccc(NC(CCN6CCC(C(=O)OCCCP(=O)(O)O)CC6)CSc6ccccc6)c(S(=O)(=O)C(F)(F)F)c5)cc4)CC3)c2)c(-c2ccc(Cl)cc2)n1C(C)C, the IC50 (second compound 0.0316 µM) is reported as 0.17 µM, the IC50 (second compound 0.1 µM) is reported as 0.165 µM and the IC50 (second compound 0.316 µM) is reported as 0.159 µM. For the same molecule, the IC50 (second compound 1 µM) was 0.155 µM, the IC50 (second compound 3.16 µM) was 0.148 µM and the IC50 (second compound 10 µM) was 0.11 µM. For the same molecule, the viability, T/C (second compound 0.0316 µM, first compound 0.000949 µM) was 98.1%, the viability, T/C (second compound 0.0316 µM, first compound 0.003 µM) was 102% and the viability, T/C (second compound 0.0316 µM, first compound 0.00949 µM) was 86.8%. It also gave a viability, T/C (second compound 0.0316 µM, first compound 0.03 µM) of 93.8%, a viability, T/C (second compound 0.0316 µM, first compound 0.0949 µM) of 96.3% and a viability, T/C (second compound 0.0316 µM, first compound 0.3 µM) of 5.53%. It also gave a viability, T/C (second compound 0.1 µM, first compound 0.000949 µM) of 97.6%, a viability, T/C (second compound 0.1 µM, first compound 0.003 µM) of 94% and a viability, T/C (second compound 0.1 µM, first compound 0.00949 µM) of 89.9%. For the same molecule, the viability, T/C (second compound 0.1 µM, first compound 0.03 µM) was 93.9%, the viability, T/C (second compound 0.1 µM, first compound 0.0949 µM) was 95.7% and the viability, T/C (second compound 0.1 µM, first compound 0.3 µM) was 2.56%. The viability, T/C (second compound 0.316 µM, first compound 0.000949 µM) was 95%, the viability, T/C (second compound 0.316 µM, first compound 0.003 µM) was 94.8% and the viability, T/C (second compound 0.316 µM, first compound 0.00949 µM) was 92.9%. It also gave a viability, T/C (second compound 0.316 µM, first compound 0.03 µM) of 92.8%, a viability, T/C (second compound 0.316 µM, first compound 0.0949 µM) of 89.1% and a viability, T/C (second compound 0.316 µM, first compound 0.3 µM) of 1.51%. For the same molecule, the viability, T/C (second compound 1 µM, first compound 0.000949 µM) was 101%, the viability, T/C (second compound 1 µM, first compound 0.003 µM) was 91.2% and the viability, T/C (second compound 1 µM, first compound 0.00949 µM) was 86%. For the same molecule, the viability, T/C (second compound 1 µM, first compound 0.03 µM) was 90.8%, the viability, T/C (second compound 1 µM, first compound 0.0949 µM) was 86.5% and the viability, T/C (second compound 1 µM, first compound 0.3 µM) was 0.55%. For the same molecule, the viability, T/C (second compound 3.16 µM, first compound 0.000949 µM) was 91.2%, the viability, T/C (second compound 3.16 µM, first compound 0.003 µM) was 87.3% and the viability, T/C (second compound 3.16 µM, first compound 0.00949 µM) was 84%. For the same molecule, the viability, T/C (second compound 3.16 µM, first compound 0.03 µM) was 86.3%, the viability, T/C (second compound 3.16 µM, first compound 0.0949 µM) was 81.3% and the viability, T/C (second compound 3.16 µM, first compound 0.3 µM) was 0.31%. The viability, T/C (second compound 10 µM, first compound 0.000949 µM) was 89%, the viability, T/C (second compound 10 µM, first compound 0.003 µM) was 76.8% and the viability, T/C (second compound 10 µM, first compound 0.00949 µM) was 75.6%. It also gave a viability, T/C (second compound 10 µM, first compound 0.03 µM) of 67.2%, a viability, T/C (second compound 10 µM, first compound 0.0949 µM) of 61.6% and a viability, T/C (second compound 10 µM, first compound 0.3 µM) of 0.38%.
